In the supplement of paper PMC11451515:

Tested on: SEM cells
Assay: cell viability relative to DMSO control; higher = less cytotoxic
Details: 48 h
In short: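 Viability, reported as a per-plate percentage of DMSO wells with cell-free wells as background, came from CellTiter-Glo One luminescence. Reading took place after 48 h at 37°C. Before that, NOMO1 or SEM (500 cells/well) or P12-Ichikawa (1000 cells/well) leukemia cells, adapted for at least four passages in each medium, were seeded in 1536-well plates (5 μl) and pin-dosed with library compounds in DMSO, 47 μM to 0.79 nM over 11 threefold points.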

[1] = HPLM + 10% dialyzed FBS, 0.000781 µM
[2] = HPLM + 10% dialyzed FBS, 0.00234 µM
[3] = HPLM + 10% dialyzed FBS, 0.00702 µM
[4] = HPLM + 10% dialyzed FBS, 0.0211 µM
[5] = HPLM + 10% dialyzed FBS, 0.0632 µM
[6] = HPLM + 10% dialyzed FBS, 0.19 µM
[7] = HPLM + 10% dialyzed FBS, 0.569 µM
[8] = HPLM + 10% dialyzed FBS, 1.71 µM
[9] = HPLM + 10% dialyzed FBS, 5.12 µM
[10] = HPLM + 10% dialyzed FBS, 15.4 µM
[11] = HPLM + 10% dialyzed FBS, 46.1 µM
[12] = RPMI 5 mM glucose + 10% FBS, 0.000781 µM
[13] = RPMI 5 mM glucose + 10% FBS, 0.00234 µM
[14] = RPMI 5 mM glucose + 10% FBS, 0.00702 µM
[15] = RPMI 5 mM glucose + 10% FBS, 0.0211 µM
[16] = RPMI 5 mM glucose + 10% FBS, 0.0632 µM
[17] = RPMI 5 mM glucose + 10% FBS, 0.19 µM
[18] = RPMI 5 mM glucose + 10% FBS, 0.569 µM
[19] = RPMI 5 mM glucose + 10% FBS, 1.71 µM
[20] = RPMI 5 mM glucose + 10% FBS, 5.12 µM
[21] = RPMI 5 mM glucose + 10% FBS, 15.4 µM
[22] = RPMI 5 mM glucose + 10% FBS, 46.1 µM
[23] = RPMI 5 mM glucose + 10% dialyzed FBS, 0.000781 µM
[24] = RPMI 5 mM glucose + 10% dialyzed FBS, 0.00234 µM
[25] = RPMI 5 mM glucose + 10% dialyzed FBS, 0.00702 µM
[26] = RPMI 5 mM glucose + 10% dialyzed FBS, 0.0211 µM
[27] = RPMI 5 mM glucose + 10% dialyzed FBS, 0.0632 µM
[28] = RPMI 5 mM glucose + 10% dialyzed FBS, 0.19 µM
[29] = RPMI 5 mM glucose + 10% dialyzed FBS, 0.569 µM
[30] = RPMI 5 mM glucose + 10% dialyzed FBS, 1.71 µM
[31] = RPMI 5 mM glucose + 10% dialyzed FBS, 5.12 µM
[32] = RPMI 5 mM glucose + 10% dialyzed FBS, 15.4 µM
[33] = RPMI 5 mM glucose + 10% dialyzed FBS, 46.1 µM

Structure (SMILES)	cell viability [1] [%]	cell viability [2] [%]	cell viability [3] [%]	cell viability [4] [%]	cell viability [5] [%]	cell viability [6] [%]	cell viability [7] [%]	cell viability [8] [%]	cell viability [9] [%]	cell viability [10] [%]	cell viability [11] [%]	cell viability [12] [%]	cell viability [13] [%]	cell viability [14] [%]	cell viability [15] [%]	cell viability [16] [%]	cell viability [17] [%]	cell viability [18] [%]	cell viability [19] [%]	cell viability [20] [%]	cell viability [21] [%]	cell viability [22] [%]	cell viability [23] [%]	cell viability [24] [%]	cell viability [25] [%]	cell viability [26] [%]	cell viability [27] [%]	cell viability [28] [%]	cell viability [29] [%]	cell viability [30] [%]	cell viability [31] [%]	cell viability [32] [%]	cell viability [33] [%]
Cc1cn([C@@H]2O[C@H](CO)[C@@H](O)[C@@H]2F)c(=O)[nH]c1=O	74.5	103	102	101	110	104	110	116	116	104	95	101	102	103	93.4	122	107	108	113	117	122	119	77	111	92.3	109	127	122	108	105	124	93.5	92.7
O=C(Nc1c(Cl)cncc1Cl)c1ccc(OC(F)F)c(OCC2CC2)c1	93.8	90.5	94.2	96.8	105	102	109	110	100	90.6	107	86.3	93.9	107	82	90.4	97.4	95.4	93.6	93.5	101	103	92.4	90.5	102	87.6	96.6	94.3	102	111	101	85.8	85.7
NC/1=N/C2=C([NH]C=N2)C(=S)N1	110	57	106	115	117	114	108	117	113	110	24.2	114	81.5	117	105	119	114	102	103	102	108	16.1	95.1	81.6	103	118	113	103	81	37.7	29.6	33.5	9.21
C[C@@]12C[C@@]3(O)O[C@@H](O1)[C@]1(COC(=O)c4ccccc4)[C@H]3C[C@@]12O[C@@H]1O[C@H](CO)[C@@H](O)[C@H](O)[C@H]1O	96	91.2	109	117	98.5	103	108	96.7	107	113	107	105	87	101	100	124	92.6	116	138	111	105	98.9	99	89.8	118	122	121	101	119	115	122	107	122
C/C=C(/C)C(=O)O[C@H]1C(C)=C[C@]23C(=O)[C@@H](C=C(CO)[C@@H](O)[C@]12O)[C@H]1[C@@H](C[C@H]3C)C1(C)C	93.9	121	87.5	90	92.4	82.1	72	92.5	87.7	70.3	54.9	120	114	101	102	100	71.9	66.9	79.9	82.6	72.7	43.8	115	135	101	107	113	93.7	104	100	91.5	82.4	42.6
COCCCN1CCC(NC(=O)c2cc(Cl)c(N)c3c2OCC3)CC1	86.8	90.1	115	116	129	123	114	119	147	123	114	110	115	116	122	149	134	130	114	147	140	111	118	119	127	114	130	143	116	156	128	143	113
OC1CCC(Nc2ncc3nc(Nc4c(F)cc(F)cc4F)n([C@@H]4CCOC4)c3n2)CC1 (some centres undefined)	96.4	93.4	99.2	110	118	108	110	107	125	80.9	91.4	96.5	92.9	103	95.7	105	101	97.4	105	95.4	40.9	99.4	90.4	111	114	96.1	112	116	118	116	100	84.3	87.3
O=C(Nc1ccc(F)c(C(F)(F)F)c1)Nc1nnc(-c2ccncc2)s1												99.6	112	104	103	107	105	88.9	104	105	106	92.8	121	114	124	113	115	117	121	104	113	125	109
CN(NC(=O)CC(=O)NN(C)C(=S)c1ccccc1)C(=S)c1ccccc1	84.1	89.7	98.9	83.7	15.8	4.39	3.48	3.79	4.13	3.69	4.7	112	116	117	120	18.3	6.81	5.75	5.74	6.44	5.8	5.63	78.8	75.8	80.7	93.1	10.5	5.14	4.03	4.74	4.6	4.37	5.18
O=C(Nc1ccccc1-c1cn2c(CN3CCNCC3)csc2n1)c1cnc2ccccc2n1	61.2	97.4	109	98.1	81.4	81.1	90.5	67.5	72.5	48.3	1.98	71.4	107	95.2	103	76	84.4	94.8	67.4	54.3	59.2	2.64	56.4	93.2	84.5	86.5	65.4	80.1	79.5	52.6	53.9	37.4	2.76
FC1=CC=C(SC/2=N/N3\C=N/C(=O)/C(=C3/C=C2)C4=C(Cl)C=CC=C4Cl)C(=C1)F	79	85.9	89.7	91.1	92	88.1	98.5	89.7	88.1	76.7	44.9	97.5	104	106	101	108	101	102	112	93.8	62.9	20.1	91.7	78.6	95.7	93.4	103	87.5	83.3	79.3	77.2	73.4	33.6
CCN1\C=C(\C(O)=O)C(=O)C2=CC=C(C)N=C12	72.7	70.2	82.7	87.4	99	97.5	92	94.8	96.4	19.8	97.3	86	93.3	102	97.1	93	108	90.9	98.9	103	13.6	76.5	86.9	82.3	103	97.9	86.3	111	103	96.6	66	21.3	78.5
Cc1cnc(NC(=O)Nc2cc(Br)c(C)cc2OC[C@@H]2CNCCO2)cn1	95	112	110	115	117	107	65.8	31.8	22.6	24.4	22.5	103	114	78.6	105	109	110	91	33	27.5	33.8	17.5	108	101	95.2	106	100	98.1	66.8	21.9	19.7	21.8	17.2
Cc1cc2c(F)c(Oc3ncnn4cc(OC[C@@H](C)O)c(C)c34)ccc2[nH]1	107	108	101	102	106	104	88.7	83.2	70.5	38.6	26.6	117	117	141	124	110	99.4	100	85.3	77.6	39.7	26.2	87.5	92.6	103	102	92.9	89.3	92.4	79.3	70.3	26	13.7
C[C@@H]1[C@H](O)[C@@H](C)/C=C/C=C/C=C/C=C/C=C/C=C/C=C/[C@H](O[C@@H]2O[C@H](C)[C@@H](O)[C@H](N)[C@@H]2O)C[C@@H]2O[C@](O)(C[C@@H](O)C[C@@H](O)[C@H](O)CC[C@@H](O)C[C@@H](O)CC(=O)O[C@H]1C)C[C@H](O)[C@H]2C(=O)O	105	92.1	105	110	110	110	103	114	102	105	125	113	115	110	107	105	112	112	108	104	121	118	110	103	108	93.8	114	116	105	108	109	91.2	127
